Assays:
rat Cyp2c11 = target: T1, rat Cyp2c11 (Rattus norvegicus, UniProt P08683); experiment: Recombinant rat Cyp phenotype profiling, 2C11; format: in vitro ADME; details: 60 min
T1 construct: purchased BD Gentest; host or cells: baculovirus infected insect cells
Description: (§1) Identification of the drug metabolizing enzymes (DMEs) of A-998679 was studied in cDNA expressed recombinant enzymes prepared from baculovirus infected insect cells over-expressing rat Cyp isoforms (BD Gentest, Woburn, MA) as listed in Table 2. Incubations were conducted in duplicate using Supersomes. The incubation mixture contained 100 pmol/ml of enzymes, except for Cyp1a1 (200 pmol/ml), 0.1 or 0.21 μM of [^3H]A-998679 in 100 mM phosphate buffer (pH 7.4). Reactions were initiated with the addition of NADPH at a final concentration of 1 mM and incubated at 37°C for 60 min. At the end of the incubation period, the incubations were terminated by the addition of acetonitrile/ethanol (50/50, v/v) solution. Insect control samples lacking expressed enzyme were used as negative control. The degree of metabolism of A-998679 was assessed by percent of parent remaining using the radio-HPLC method described below.
(§2) Radiolabeled components from the above assays were profiled following separation by HPLC with on line radioflow detector. The system consisted of an Agilent 1100 Series quaternary pump and autosampler connected to a Packard 500TR flow scintillation detector. The data were processed using the Radiomatic™ Flo-one® software v3.65. The scintillant (Perkin Elmer FLO-SCINT™ III) flow was maintained at 3 ml/min. […]

Cyp1a1 = experiment: Immunohistochemistry of Cyp1a1 in rat liver; format: in vivo; details: 5 days of treatment; not detectable in control livers
Description: All animal experiments were conducted in accordance with the Guiding Principles in the Use of Animals in Toxicology (http://www.toxicology.org/ai/air/air6.asp) and were approved by Abbott's Institutional Animal Care and Use Committee (IACUC). Male Sprague-Dawley rats [Crl:CD®(SD)IGS BR], weighing ~250 g at study initiation were obtained from Charles River Laboratories, Inc. (Wilmington, MA). Rats were housed singly in ventilated, stainless steel, wire-bottom hanging cages and fed non-certified Rodent Chow (Harlan Labs, Madison, WI), and water ad libitum and acclimated for at least 5 days after arrival. Rats were randomly assigned to various treatment groups (3 rats/group) and were dosed once daily by oral gavage with vehicle (0.2% hydroxypropylmethylcellulose at a dose volume of 10 ml/kg) or with 30, 100, or 200 mg/kg of A-998679. All rats were fasted overnight after their last dose, weighed and sacrificed under isoflurane anesthesia. […] Serum clinical chemistry parameters were quantified using an Aeroset Clinical Chemistry Analyzer (Abbott Laboratories, Abbott Park, IL) and included alanine amino transferase (ALT), aspartate amino transferase (AST), gamma glutamyltransferase (GGT), and alkaline phosphatase (ALP) activities. […]

CYP2C19 = target: T2, CYP2C19 (Homo sapiens, UniProt P33261); experiment: CYP inhibition evaluation in human liver microsomes, CYP2C19 (S-mephenytoin); format: in vitro ADME; details: probe substrate S-mephenytoin
T2 construct: from tissue; host or cells: human liver microsomes
T2 sequence (P33261 whole entry): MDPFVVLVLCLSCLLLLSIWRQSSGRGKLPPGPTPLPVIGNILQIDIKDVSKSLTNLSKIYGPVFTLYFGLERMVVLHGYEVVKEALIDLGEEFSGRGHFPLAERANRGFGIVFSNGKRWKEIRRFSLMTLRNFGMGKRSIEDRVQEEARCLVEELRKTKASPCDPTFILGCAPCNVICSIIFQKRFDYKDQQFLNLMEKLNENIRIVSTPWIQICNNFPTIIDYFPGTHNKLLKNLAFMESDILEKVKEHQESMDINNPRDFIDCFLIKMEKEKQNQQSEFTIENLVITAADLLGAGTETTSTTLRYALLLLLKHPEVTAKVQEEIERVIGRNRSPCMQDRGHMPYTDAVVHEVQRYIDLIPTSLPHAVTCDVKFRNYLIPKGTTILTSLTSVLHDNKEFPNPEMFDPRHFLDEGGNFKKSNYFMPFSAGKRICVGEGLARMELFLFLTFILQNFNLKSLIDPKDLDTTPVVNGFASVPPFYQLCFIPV
Description: Incubations were performed in human liver microsomes using probe substrate concentrations similar to their corresponding Km values. Enzyme activity was evaluated in the presence of various concentrations of A-998679. The incubations consisted of the test article at varying concentrations (0–30 μM), probe substrate (concentration ~Km, see Table A2), human liver microsomal protein and 1 mM NADPH in 50 mM phosphate buffer at pH 7.4. Relative quantitation of the metabolites was obtained by LC-MS/MS using an ABSciex (Foster City, CA) API3000 or API4000 Qtrap hybrid linear ion trap mass spectrometer equipped with a TurboIonspray source using either PerkinElmer series 200 pumps or Agilent 1100 series pump with a Leap autosampler. Analytes were separated using a Phenomenex Prodigy ODS(3) 5 μm, 50 × 2.0 mm column at 50°C, eluted and detected under the specific conditions listed in Tables A3, A4, and A5. The analyte to internal standard peak area ratios were determined using Analyst 1.4 software (Applied Biosytems, Carlsbad, CA). The peak area ratios observed in the presence of test article were compared to the vehicle control in order to determine percent activity. To determine the IC50, the data were plotted as Log [dose] μM vs. % inhibition, and analyzed with a sigmoidal dose-response (variable slope) fitting equation. […]

rat Cyp 3A2 = target: T3, rat Cyp 3A2 (Rattus norvegicus, UniProt P05183); experiment: Recombinant rat Cyp phenotype profiling, 3A2; format: in vitro ADME; details: 60 min
T3 construct: purchased BD Gentest; host or cells: baculovirus infected insect cells
T3 sequence (P05183 whole entry): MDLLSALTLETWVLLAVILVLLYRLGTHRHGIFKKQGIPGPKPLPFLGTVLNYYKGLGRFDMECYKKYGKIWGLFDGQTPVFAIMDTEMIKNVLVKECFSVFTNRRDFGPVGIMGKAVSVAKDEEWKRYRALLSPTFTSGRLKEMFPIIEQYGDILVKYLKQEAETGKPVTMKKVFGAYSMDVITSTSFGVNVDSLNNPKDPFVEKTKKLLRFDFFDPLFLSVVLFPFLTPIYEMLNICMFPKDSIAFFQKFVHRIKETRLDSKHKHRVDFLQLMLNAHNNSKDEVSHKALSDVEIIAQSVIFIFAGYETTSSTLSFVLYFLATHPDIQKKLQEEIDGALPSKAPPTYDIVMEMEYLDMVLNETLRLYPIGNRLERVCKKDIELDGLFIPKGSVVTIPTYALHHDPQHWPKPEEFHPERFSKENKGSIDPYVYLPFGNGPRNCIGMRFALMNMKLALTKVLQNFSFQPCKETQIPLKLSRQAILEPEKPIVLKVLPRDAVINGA
Description: as §1, §2

rat Cyp 2E1 = target: T4, rat Cyp 2E1 (Rattus norvegicus, UniProt P05182); experiment: Recombinant rat Cyp phenotype profiling, 2E1; format: in vitro ADME; details: 60 min
T4 construct: purchased BD Gentest; host or cells: baculovirus infected insect cells
T4 sequence (P05182 whole entry): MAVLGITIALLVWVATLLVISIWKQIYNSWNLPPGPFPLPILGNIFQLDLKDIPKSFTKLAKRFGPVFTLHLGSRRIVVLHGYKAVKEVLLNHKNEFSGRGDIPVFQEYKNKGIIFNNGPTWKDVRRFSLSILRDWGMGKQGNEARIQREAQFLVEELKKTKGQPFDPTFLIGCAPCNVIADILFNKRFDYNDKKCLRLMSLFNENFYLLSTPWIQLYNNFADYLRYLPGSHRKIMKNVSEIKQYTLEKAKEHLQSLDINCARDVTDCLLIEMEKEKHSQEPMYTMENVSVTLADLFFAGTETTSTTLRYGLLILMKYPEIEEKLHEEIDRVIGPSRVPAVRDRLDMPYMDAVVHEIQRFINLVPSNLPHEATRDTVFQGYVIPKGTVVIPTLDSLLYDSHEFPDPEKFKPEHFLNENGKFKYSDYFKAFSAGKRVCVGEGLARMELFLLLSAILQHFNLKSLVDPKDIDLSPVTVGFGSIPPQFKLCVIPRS
Description: as §1, §2

T1 sequence (P08683 whole entry): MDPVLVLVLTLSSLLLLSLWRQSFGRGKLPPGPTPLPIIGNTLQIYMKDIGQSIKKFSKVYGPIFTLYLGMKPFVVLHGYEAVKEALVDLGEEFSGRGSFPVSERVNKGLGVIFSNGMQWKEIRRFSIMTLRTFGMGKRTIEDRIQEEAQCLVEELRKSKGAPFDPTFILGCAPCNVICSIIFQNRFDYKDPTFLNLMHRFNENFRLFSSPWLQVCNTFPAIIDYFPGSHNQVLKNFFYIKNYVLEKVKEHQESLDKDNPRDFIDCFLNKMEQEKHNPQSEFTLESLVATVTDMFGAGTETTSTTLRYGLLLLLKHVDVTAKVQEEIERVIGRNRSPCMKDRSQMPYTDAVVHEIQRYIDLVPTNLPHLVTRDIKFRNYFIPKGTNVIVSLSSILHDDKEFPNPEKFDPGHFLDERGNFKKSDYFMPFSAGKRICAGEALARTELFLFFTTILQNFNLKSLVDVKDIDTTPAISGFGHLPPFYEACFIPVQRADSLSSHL

% parent remaining (rat Cyp2c11; recombinant rat Cyp 2C11, 0.10 μM): 78.1%
% parent remaining (rat Cyp2c11; recombinant rat Cyp 2C11, 0.21 μM): 28.8%
Cyp1a1 immunostaining in rat liver (Cyp1a1): moderate levels in centrilobular regions
IC50 (CYP2C19): > 30 µM
% parent remaining (rat Cyp 3A2; recombinant rat Cyp 3A2, 0.10 μM): 100%
% parent remaining (rat Cyp 3A2; recombinant rat Cyp 3A2, 0.21 μM): 94.2%
% parent remaining (rat Cyp 2E1; recombinant rat Cyp 2E1, 0.10 μM): 95.5%
% parent remaining (rat Cyp 2E1; recombinant rat Cyp 2E1, 0.21 μM): 91.9%
Compound: N#Cc1cccc(-c2noc(-c3cccnc3)n2)c1 [A-998679, 3-(5-pyridin-3-yl-1,2,4-oxadiazol-3-yl) benzonitrile]

Source: paper PMC3481155, “AhR activation underlies the CYP1A autoinduction by A-998679 in rats” (Frontiers in Genetics, 2012)
